How the values were obtained:
[1] = Lipid peroxidation inhibitory activity (egg lecithin liposomes, TBA); format: biochemical; settings: Conc. ± SD; standard ascorbic acid; read-out: IC50 inhibitory concentration, Lipid peroxidation
Method: Egg lecithin (3 mg/mL phosphate buffer, pH 7.4) was sonicated in an ultrasonic sonicator for 10 min to ensure proper liposome formation. Test samples or standard, ascorbic acid (100 μL) of different concentrations (10, 20, 30, 40 50 and 100 μg/mL) was added to liposome mixture (1 mL); the control was without test sample. Lipid peroxidation was induced by adding ferric chloride (10 μL, 400 mM) and L-ascorbic acid (10 μL, 200 mM). After incubation for 1 h at 37 °C, the reaction was stopped by adding hydrochloric acid (2 mL, 0.25 N) containing trichloroacetic acid (150 mg/mL), thiobarbituric acid (3.75 mg/mL) and butylated hydroxy anisole (0.50 mg/mL). The reaction mixture was subsequently boiled for 15 min, cooled and centrifuged at 1,000 rpm for 15 min, and the absorbance of the supernatant was measured at 532 nm (Duh and Yen, [1997]). The % inhibition at different concentrations was calculated by the following formula %Inhibition=[1-(Vt/Vc)]×100 where V t = mean absorption of test compound, V c = mean absorption of control.
The IC50 (nM/mL) value was derived from the % inhibition at different concentrations.

[2] = test system: BT474 (breast cancer cell line); assay: In vitro cytotoxicity by MTT assay, BT474; format: cell-based; settings: Homo sapiens, 72 h; for cytotoxicity at 0.005 µM: BT-474, 0.005 μM; for cytotoxicity at 0.005 µM / cytotoxicity at 0.015 µM / cytotoxicity at 0.045 µM / cytotoxicity at 0.13 µM / cytotoxicity at 0.41 µM / cytotoxicity at 1.23 µM / cytotoxicity at 3.7 µM / cytotoxicity at 11.11 µM / cytotoxicity at 33.33 µM / cytotoxicity at 100 µM: read-out: % cytotoxicity (100 − % cell survival) of BT474 cell line; for cytotoxicity at 0.015 µM: BT-474, 0.015 μM; for cytotoxicity at 0.045 µM: BT-474, 0.045 μM; for cytotoxicity at 0.13 µM: BT-474, 0.13 μM; for cytotoxicity at 0.41 µM: BT-474, 0.41 μM; for cytotoxicity at 1.23 µM: BT-474, 1.23 μM; for cytotoxicity at 3.7 µM: BT-474, 3.7 μM; for cytotoxicity at 11.11 µM: BT-474, 11.11 μM; for cytotoxicity at 33.33 µM: BT-474, 33.33 μM; for cytotoxicity at 100 µM: BT-474, 100 μM; for CC50: BT-474, BT474, concentration at which 50 % of the cells are dead, read-out: CTC50 (cytotoxicity concentration)
Method in brief: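 Cells grown in RPMI-1640 with 10 % […] newborn calf serum were seeded at about 10,000 cells per well and left 24 h to form a partial monolayer. Compounds were then added for 72 h at 37 °C, 5 % CO2, followed by MTT for 4 h, formazan solubilized in propanol and absorbance read at 490 nm.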

[3] = test system: root meristem cells of Allium cepa; assay: In vitro antimitotic activity and cytogenetic analysis, Allium cepa meristem root model; format: cell-based; settings: compounds 1 mg/mL, PC (EMS) 2 × 10^−2 M; for MI (%) ± SEM (mitotic index): lower MI = higher activity, negative control 6.22
Method: Small bulbs (1.5–2.0 cm in diameter) of the common onion, A. cepa (2n = 16), were purchased from vendor at a local market. Prior to initiating the test, the outer scales of the bulbs and the dry bottom plate were removed without destroying the root primordia. The roots of A. cepa were grown in distilled water in Erlenmeyer flasks (200 mL capacity) under laboratory conditions (dark 24 °C). For each synthesized compound sample, after reaching a length of 3 cm (±0.5 cm), a series of six bulbs were placed in distilled water (pH 7.3) for 48 h and then onion roots were treated with the synthesized compound at 1 mg/mL concentrations of each tested compound. The test tubes were kept in an incubator at 22 ± 1 °C, and the test samples were changed daily at the same time. Several of the newly formed root tips were then cut from each bulb and examined for any visible morphological abnormalities. The bulbs with satisfactory root lengths (2–2.5 cm) were used in the study, while those with exceptionally long or short roots were discarded (on average 2–3 bulbs). Therefore, individual sets of five bulbs were used for each extract sample.
Distilled water (pH 7.3) was used as a negative control, and EMS (2 × 10^−2 M) used as a positive control mutagen (Fiskesjo, [1993], [1997]). After 24 h of exposure, several root tips were removed from the bulbs, fixed in 3:1 (v/v) ethanol (90 %)/glacial acetic acid (45 %) and stored overnight at 4 °C. The next day, they were placed in 70 % (v/v) aqueous alcohol and refrigerated until used. Allium roots were softened by digesting with HCl and rinsed the roots in water. After removing the water from the third rinse, the roots were covered with the orcein acetate stain. The roots were incubated in the stain for 12 min. During this time, the very tip of the root begins to turn red as the DNA stains the numerous small actively dividing cells at the tip. A root was transferred to the centre of a clean microscope slide, and a drop of water was added. Using a razor blade most of the unstained part of the root was cut off and discarded. The root tip was covered with a cover slip and then carefully pushed down on the cover slide with the wooden end of a dissecting probe. […] The root tip should spread out to a diameter about 0.5–1 cm. Five slides were prepared per bulb.
The following parameters were used for the determination of cytotoxicity and genotoxicity: • (i) the mitotic index (MI) was calculated as the ratio between the number of mitotic cells and the total number of cells scored and expressed as percentage using following formula as per standard procedures. Mitoticindex=Numberofdividingcells/Totalnumberofcells×100 • (ii) Chromatin aberrations (stickiness, breaks and polar deviation) were used as end points for the determination of cytogenetic effects, and micronuclei (MNC) were scored in interphase cells per 1,000 cells (‰ MNC) (Freshney, [2000]). • (iii) The most frequent abnormalities are shown in microphotographs. After 72 h of exposure to the test samples, the root lengths were measured and used as an index of general toxicity. The results for mitotic index and root length are expressed as percentage of the negative and positive controls. Visible morphological modifications, such as changes in root consistency and colour as well as the presence of swelling (c-tumours), hooks or twists in the roots, were also observed.

SMILES | IC50 [1] [µM] | cytotoxicity at 0.005 µM [2] [%] | cytotoxicity at 0.015 µM [2] [%] | cytotoxicity at 0.045 µM [2] [%] | cytotoxicity at 0.13 µM [2] [%] | cytotoxicity at 0.41 µM [2] [%] | cytotoxicity at 1.23 µM [2] [%] | cytotoxicity at 3.7 µM [2] [%] | cytotoxicity at 11.11 µM [2] [%] | cytotoxicity at 33.33 µM [2] [%] | cytotoxicity at 100 µM [2] [%] | melting point [°C] | Aberrant cells (%) ± SEM [3] [%] | Chromosome breaks (%) ± SEM [3] [%] | MNC (‰) ± SEM (micronuclei per 1,000 cells) [3] | Polar deviations (%) ± SEM [3] [%] | Stickiness (%) ± SEM [3] [%] | MI (%) ± SEM (mitotic index) [3] [%] | CC50 [2] [µM]
O=C(NS(=O)(=O)c1nnc(N=Cc2ccccc2)s1)c1ccccc1 [Compound 9a, N-{[5-(Benzylidenamino)-1,3,4-thiadiazol-2-yl]sulphonyl} benzamide] | 122 ± 18.6 | 35.3 | 35.8 | 36.4 | 37 | 38 | 39 | 40.2 | 40.6 | 41.5 | 66 | 185 to 187 | 19.28 ± 5.22 | 6.22 ± 1.02 | 0.34 ± 0.15 ‰ | 8.62 ± 2.16 | 6.64 ± 2.38 | 3.22 ± 0.16 | –
O=C(NS(=O)(=O)c1nnc(N=Cc2ccc(Cl)cc2)s1)c1ccccc1 [Compound 9b, N-({5-[(4-Chlorobenzylidene)amino]-1,3,4-thiadiazol-2-yl}sulfonyl)benzamide] | 133 ± 11.5 | 38.8 | 39.4 | 41.5 | 42 | 46.1 | 50.1 | 56.3 | 60.7 | 62.3 | 65 | 212 to 214 | 24.64 ± 7.01 | 3.36 ± 0.57 | 0.42 ± 0.18 ‰ | 7.32 ± 1.24 | 9.12 ± 1.33 | 2.77 ± 0.19 | 2.41
COc1ccccc1C=Nc1nnc(S(=O)(=O)NC(=O)c2ccccc2)s1 [Compound 9c, N-({5-[(2-Methoxybenzylidene)amino]-1,3,4-thiadiazol-2-yl}sulfonyl)benzamide] | 102 ± 14.5 | 38.1 | 41.5 | 42.6 | 44.4 | 47 | 50.4 | 53.6 | 54.8 | 58.8 | 67.1 | – | 38.54 ± 8.18 | – | 0.36 ± 0.14 ‰ | 7.22 ± 2.61 | 28.04 ± 6.34 | 0.53 ± 0.03 | 0.794
COc1ccc(C=Nc2nnc(S(=O)(=O)NC(=O)c3ccccc3)s2)cc1 [Compound 9d, N-({5-[(4-Methoxybenzylidene)amino]-1,3,4-thiadiazol-2-yl}sulfonyl)benzamide] | 164 ± 14.6 | 33.3 | 33.4 | 33.5 | 34 | 34.2 | 36.8 | 36.8 | 37.4 | 38 | 39.4 | 215 to 217 | 25.33 ± 9.42 | 0.96 ± 0.46 | 0.51 ± 0.17 ‰ | 9.15 ± 6.92 | 14.48 ± 2.52 | 2.34 ± 0.19 | –
COc1cc(C=Nc2nnc(S(=O)(=O)NC(=O)c3ccccc3)s2)ccc1O [Compound 9g, N-({5-[(4-Hydroxy-3-methoxybenzylidene)amino]-1,3,4-thiadiazol-2-yl}sulfonyl)benzamide] | – | 27.4 | 28 | 28.7 | 29.2 | 31.4 | 32.8 | 33.2 | 34.7 | 36.2 | 38.1 | 252 to 254 | 40.48 ± 12.94 | – | 0.48 ± 0.32 ‰ | 10.26 ± 2.13 | 32.24 ± 6.92 | 0.41 ± 0.04 | –
CN(C)c1ccc(C=Nc2nnc(S(=O)(=O)NC(=O)c3ccccc3)s2)cc1 [Compound 9h, N-[(5-{[4-(Dimethylamino)benzylidene]amino}-1,3,4-thiadiazol-2-yl)sulfonyl]benzamide] | – | 29 | 29.1 | 30.6 | 32.9 | 33.8 | 34.2 | 35.2 | 38.4 | 41.5 | 47.7 | 236 to 238 | 29.83 ± 5.03 | 2.43 ± 0.67 | 0.31 ± 0.14 ‰ | 8.91 ± 1.56 | 16.50 ± 3.23 | 1.07 ± 0.13 | –

Reference: PMC3973950, “Synthesis of 5-arylidine amino-1,3,4-thiadiazol-2-[(N-substituted benzyol)]sulphonamides endowed with potent antioxidants and anticancer activity induces growth inhibition in HEK293, BT474 and NCI-H226 cells” (Medicinal Chemistry Research, 2013)
